Assay results: ChEMBL document CHEMBL1201862, “PubChem BioAssay data set” (2004)
The source made the active and inactive calls.

Legend:
[1] = Luminescence Cell-Based Dose Response HTS to Identify Activators of Luciferase Translation or Activity in H4 […] Cells. [Related pubchem assays: 1829 (Project Summary), 1814 (Primary HTS)]; assay type: functional
H4 = experiment: Luminescence Cell-Based Dose Response HTS to Identify Activators of 5'UTR Stem-Loop Driven Prion Protein mRNA Translation in H4 Neuroglioblastoma Cells. [Related pubchem assays: 1829 (Project Summary), 1814 (Primary HTS)]; assay type: functional; details: Homo sapiens
[2] = Luminescence Cell-Based Dose Response HTS to Identify Activators of 5'UTR Stem-Loop Driven Prion Protein mRNA Translation in H4-C Neuroglioblastoma Cells. [Related pubchem assays: 1829 (Project Summary), 1814 (Primary HTS)]; assay type: functional
[3] = Trypanosoma cruzi growth suppression in host cells – NIH3T3 host cells, beta-gal luminescence, confirmation (AID 2044); assay type: functional, cell-based;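 note: intracellular parasites grown in NIH/3T3 mouse fibroblasts as host cells; luminescent beta-galactosidase reporter signal from transgenic T. cruzi replicating inside host cells; inhibitors lower the luminescence signal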
[4] = target: T1, Small ubiquitin-related modifier 1 (Homo sapiens, UniProt P63165); experiment: SUMO1 protein-protein binding blockers, potency – biochemical, FRET, dose response (AID 624383); assay type: functional; details: read-out: IC50_Mean
T1 sequence (P63165 whole entry): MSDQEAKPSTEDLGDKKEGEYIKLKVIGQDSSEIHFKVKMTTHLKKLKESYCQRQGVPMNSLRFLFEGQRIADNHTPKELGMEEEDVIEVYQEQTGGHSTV

Genome polyprotein = Genome polyprotein (dengue virus type 2, UniProt P29990); experiment: flavivirus cap methylation enzyme inhibition – biochemical, confirmation dose response, primary screen (AID 588689); assay type: functional
Genome polyprotein, sequence (P29990 2492-3391 limits assumed): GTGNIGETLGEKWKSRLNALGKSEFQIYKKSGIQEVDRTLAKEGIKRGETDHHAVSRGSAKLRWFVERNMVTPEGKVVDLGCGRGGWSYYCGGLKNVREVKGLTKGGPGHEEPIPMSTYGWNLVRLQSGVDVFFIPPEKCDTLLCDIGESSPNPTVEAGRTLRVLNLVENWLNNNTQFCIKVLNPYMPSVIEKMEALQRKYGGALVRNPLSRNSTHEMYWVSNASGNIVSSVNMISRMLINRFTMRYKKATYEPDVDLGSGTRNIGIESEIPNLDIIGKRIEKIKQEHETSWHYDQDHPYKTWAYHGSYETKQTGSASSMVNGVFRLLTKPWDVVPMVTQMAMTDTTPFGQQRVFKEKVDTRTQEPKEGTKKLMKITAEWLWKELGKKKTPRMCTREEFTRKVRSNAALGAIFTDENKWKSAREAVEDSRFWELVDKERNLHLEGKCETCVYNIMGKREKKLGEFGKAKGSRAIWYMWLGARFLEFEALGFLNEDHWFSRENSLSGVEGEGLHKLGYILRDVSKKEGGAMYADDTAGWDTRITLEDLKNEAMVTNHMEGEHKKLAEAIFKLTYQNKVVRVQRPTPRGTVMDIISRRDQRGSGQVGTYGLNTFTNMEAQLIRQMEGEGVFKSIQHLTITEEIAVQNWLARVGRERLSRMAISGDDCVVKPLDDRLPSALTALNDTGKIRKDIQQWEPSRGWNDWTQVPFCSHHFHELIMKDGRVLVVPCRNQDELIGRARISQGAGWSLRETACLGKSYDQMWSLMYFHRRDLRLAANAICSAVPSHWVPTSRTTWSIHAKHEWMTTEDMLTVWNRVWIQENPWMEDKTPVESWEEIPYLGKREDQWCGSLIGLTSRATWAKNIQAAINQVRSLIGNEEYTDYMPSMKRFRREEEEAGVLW

Streptococcus = experiment: GAS UMAA2166 growth inhibition – luminescence, BacTiterGlo, counter-screen for streptokinase expression inhibitor project, dose response (AID 1915); assay type: functional, organism-based; details: Streptococcus;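 note: potency for reduction of bacterial viability or growth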
[5] = target: T2, Small ubiquitin-related modifier 2 (Homo sapiens, UniProt P61956); experiment: disruption of SUMO2 interaction with SIM peptide – biochemical, fluorescence polarization, uHTS hits, selectivity assay for SUMO1 interaction inhibitor project, dose response (AID 624385); assay type: functional; details: read-out: IC50_Mean
T2 sequence (P61956 whole entry): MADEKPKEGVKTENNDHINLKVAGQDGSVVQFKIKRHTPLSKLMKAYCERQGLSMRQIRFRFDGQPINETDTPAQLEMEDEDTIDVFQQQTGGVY

[6] = tested on: Streptococcus sp. 'group A'; experiment: Streptococcus pyogenes SK(-)GAS viability under kanamycin – luminescence, BacTiterGlo, confirmation, counter-screen for streptokinase expression inhibitor project, dose response (AID 1900); assay type: functional, organism-based; details: Streptococcus sp. 'group A'
[7] = target: T2, Small ubiquitin-related modifier 2; experiment: SUMO2 binding disruption by SUMO1 hits – biochemical, FRET, human SUMO2, uHTS hits, selectivity assay for SUMO1 interaction inhibitor project, dose response (AID 624384); assay type: functional; details: read-out: IC50_Mean
[8] = target: T1, Small ubiquitin-related modifier 1; experiment: SUMO1 protein interaction blockers, potency – biochemical, fluorescence polarization, uHTS hits, dose response (AID 624382); assay type: functional; details: read-out: IC50_Mean
[9] = target: Tyrosyl-DNA phosphodiesterase 2 (Homo sapiens, UniProt O95551); experiment: potency against TDP2 phosphodiesterase activity – biochemical, epi absorbance, IC50, dose response (AID 743297)
Tyrosyl-DNA phosphodiesterase 2, sequence (O95551 whole entry): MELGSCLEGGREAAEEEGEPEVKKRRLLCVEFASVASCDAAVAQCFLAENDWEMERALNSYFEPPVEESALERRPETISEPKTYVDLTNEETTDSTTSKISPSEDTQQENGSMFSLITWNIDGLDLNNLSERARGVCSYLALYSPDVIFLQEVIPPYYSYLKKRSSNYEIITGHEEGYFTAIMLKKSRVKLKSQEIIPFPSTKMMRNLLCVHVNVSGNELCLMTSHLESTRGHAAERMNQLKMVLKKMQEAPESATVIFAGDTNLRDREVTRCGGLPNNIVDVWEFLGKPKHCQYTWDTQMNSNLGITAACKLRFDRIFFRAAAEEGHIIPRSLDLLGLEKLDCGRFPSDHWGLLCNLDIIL

[10] = target: T3, Sentrin-specific protease 6 (Homo sapiens, UniProt Q9GZR1); experiment: SAR Analysis of small molecule inhibitors of Sentrin-specific protease 6 (SENP6) using a Luminescent assay. [Related pubchem assays (depositor defined):AID2582, AID2599]; assay type: functional
T3 sequence (Q9GZR1 whole entry): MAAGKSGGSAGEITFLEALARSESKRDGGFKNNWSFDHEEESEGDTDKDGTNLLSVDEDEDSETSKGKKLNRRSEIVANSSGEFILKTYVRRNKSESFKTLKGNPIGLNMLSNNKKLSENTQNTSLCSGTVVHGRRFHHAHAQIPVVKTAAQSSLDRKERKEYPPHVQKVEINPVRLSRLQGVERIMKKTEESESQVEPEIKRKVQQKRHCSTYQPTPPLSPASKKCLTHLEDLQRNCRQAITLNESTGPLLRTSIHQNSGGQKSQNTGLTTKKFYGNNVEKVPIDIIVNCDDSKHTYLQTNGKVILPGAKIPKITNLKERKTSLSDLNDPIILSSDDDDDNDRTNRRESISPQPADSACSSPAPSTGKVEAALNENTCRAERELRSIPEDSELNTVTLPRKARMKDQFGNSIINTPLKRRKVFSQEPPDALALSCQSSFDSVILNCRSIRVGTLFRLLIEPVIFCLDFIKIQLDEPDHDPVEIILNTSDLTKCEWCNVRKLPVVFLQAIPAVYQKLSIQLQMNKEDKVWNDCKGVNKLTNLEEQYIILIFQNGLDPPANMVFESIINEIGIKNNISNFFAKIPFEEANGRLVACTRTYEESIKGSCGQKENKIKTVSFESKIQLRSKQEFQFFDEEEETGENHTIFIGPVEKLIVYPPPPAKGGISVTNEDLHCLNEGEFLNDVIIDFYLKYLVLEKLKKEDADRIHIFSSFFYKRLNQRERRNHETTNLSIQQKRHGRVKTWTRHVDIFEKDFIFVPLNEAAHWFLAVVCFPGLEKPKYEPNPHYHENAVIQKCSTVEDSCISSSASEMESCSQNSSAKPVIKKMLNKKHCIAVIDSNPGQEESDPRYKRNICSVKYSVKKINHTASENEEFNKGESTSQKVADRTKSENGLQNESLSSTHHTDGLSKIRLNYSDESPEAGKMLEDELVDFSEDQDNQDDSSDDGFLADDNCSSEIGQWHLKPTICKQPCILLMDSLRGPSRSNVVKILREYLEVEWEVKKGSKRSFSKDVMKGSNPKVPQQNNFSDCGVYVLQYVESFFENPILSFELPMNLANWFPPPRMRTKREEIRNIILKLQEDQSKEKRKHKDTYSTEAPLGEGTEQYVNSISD

[11] = target: T4, Sentrin-specific protease 8 (Homo sapiens, UniProt Q96LD8); assay type: functional;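 note: kinetic enzyme assay of SENP8 cleaving a Nedd8 protein substrate, dose-response confirmation of screening hits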
T4 sequence (Q96LD8 whole entry): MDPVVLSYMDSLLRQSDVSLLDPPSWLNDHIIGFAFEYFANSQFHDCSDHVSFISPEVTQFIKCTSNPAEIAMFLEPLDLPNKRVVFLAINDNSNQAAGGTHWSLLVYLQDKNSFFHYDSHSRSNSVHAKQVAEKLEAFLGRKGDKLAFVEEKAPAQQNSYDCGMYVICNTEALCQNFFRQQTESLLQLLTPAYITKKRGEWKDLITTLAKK

[12] = target: T5, Bifunctional protein GlmU (Mycobacterium tuberculosis, UniProt P9WMN3); experiment: Inhibitors of Mycobacterial Glucosamine-1-phosphate acetyl transferase (GlmU). Secondary screen.; design: species or system Mycobacterium tuberculosis H37Rv
T5 sequence (P9WMN3 whole entry): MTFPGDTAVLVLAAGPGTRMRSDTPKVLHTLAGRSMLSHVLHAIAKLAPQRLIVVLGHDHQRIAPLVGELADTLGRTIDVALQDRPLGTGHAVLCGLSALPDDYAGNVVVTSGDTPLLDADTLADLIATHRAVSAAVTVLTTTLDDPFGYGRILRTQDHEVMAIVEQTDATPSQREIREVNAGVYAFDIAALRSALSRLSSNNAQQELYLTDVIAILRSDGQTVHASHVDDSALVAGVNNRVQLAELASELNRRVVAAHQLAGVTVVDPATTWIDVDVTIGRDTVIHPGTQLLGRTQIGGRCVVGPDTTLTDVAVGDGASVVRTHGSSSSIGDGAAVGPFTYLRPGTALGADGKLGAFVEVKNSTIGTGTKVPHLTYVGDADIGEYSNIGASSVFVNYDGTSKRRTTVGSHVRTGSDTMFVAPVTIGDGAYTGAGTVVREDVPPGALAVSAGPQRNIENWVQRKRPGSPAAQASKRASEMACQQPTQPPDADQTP

**Q.** With c1ccc2c(Nc3nnc(-c4ccncc4)s3)cccc2c1 as the compound, how does the EC50 [1] read?
**A.** > 120 µM (not active)

**Q.** What about the EC50 (H4) of the same compound?
**A.** 13.8 µM (active)

**Q.** And the EC50 [2]?
**A.** 40 µM (active)

**Q.** What about the EC50 [3] of the same compound?
**A.** 1.59 µM (active)

**Q.** Which IC50 [4] does the source give for N#Cc1c(O)nc(SCC(=O)N2c3ccccc3Sc3ccccc32)nc1-c1ccccc1 here?
**A.** 19.8 µM (active)

**Q.** What about the IC50 (Genome polyprotein) of the same compound?
**A.** 38.9 µM (active)

**Q.** What about the EC50 (Streptococcus) of the same compound?
**A.** 13.9 µM (active)

**Q.** And the IC50 [5]?
**A.** 10.9 µM (active)

**Q.** What about the EC50 [6] of the same compound?
**A.** 5.6 µM (active)

**Q.** What about the IC50 [7] of the same compound?
**A.** 23.1 µM (inactive)

**Q.** And the IC50 [8]?
**A.** 21 µM (inactive)

**Q.** With COc1cc(C(=O)c2nccc3cc(OC)c(OC)cc23)c([N+](=O)[O-])cc1OC as the compound, how does the IC50 [9] read?
**A.** > 128 µM (inactive)

**Q.** And the IC50 [10]?
**A.** 66.8 µM (active)

**Q.** What about the IC50 [11] of the same compound?
**A.** 0.535 µM (active)

**Q.** For N=C1S/C(=C\c2ccc(-c3ccccc3C(=O)O)o2)C(=O)N1c1ccc2c(c1)OCO2, which IC50 [12] is on record?
**A.** 153 µM (active)
